Experimental data taken from patent US20070049564A1 (Wyeth, priority 2005, published 2007).

Assays:
Test in all cases: MIC, broth microdilution
E. coli GC 2233 = details: Escherichia coli, GC2233, E. coli GC 2233
E. coli GC 2270 = details: Escherichia coli, GC2270, E. coli GC 2270
E. coli GC 2271 = details: Escherichia coli, GC2271, E. coli GC 2271
Protocol: (§1) Antimicrobial susceptibility testing. The in vitro activities of the antibiotics are determined by the broth microdilution method as recommended by the National Committee for Clinical Laboratory Standards (NCCLS) (1). Mueller-Hinton II broth (MHBII)(BBL Cockeysville, Md.) is the medium employed in the testing procedures. Microtiter plates containing serial dilutions of each antimicrobial agent are inoculated with each organism to yield the appropriate density (10^5 CFU/ml) in a 100 μl final volume. The plates are incubated for 18-22 hours at 35° C. in ambient air.
(§2) Representative compounds were first incubated in mouse serum for an hour prior to the in vitro testing against a panel of selected gram-positive and gram-negative bacteria strains. All compounds were also pre-incubated in water for an hour prior to testing as control.

E. coli GC 2272 = details: Escherichia coli, GC2272, E. coli GC 2272
E. coli GC 4560 = details: Escherichia coli, GC4560, E. coli GC 4560
E. coli GC 6465 = details: Escherichia coli, GC6465, E. coli GC 6465
Protocol: as §1, §2

E. coli GC 3226 = details: Escherichia coli, GC3226, E. coli GC 3226
E. coli GC 2203 = details: Escherichia coli, GC2203, E. coli GC 2203
E. coli GC 1073 = details: Escherichia coli, GC1073, E. coli GC 1073
P. aeruginosa GC 2214 = details: Pseudomonas aeruginosa, GC2214, P. aeruginosa GC 2214
S. aureus GC 1131 = details: Staphylococcus aureus, GC1131, S. aureus GC 1131
S. aureus GC 6467 = details: Staphylococcus aureus, GC6467, S. aureus GC 6467
S. aureus GC 1079 = details: Staphylococcus aureus, GC1079, S. aureus GC 1079
S. aureus GC 6335 = details: Staphylococcus aureus, GC6335, S. aureus GC 6335
S. aureus GC 6469 = details: Staphylococcus aureus, GC6469, S. aureus GC 6469
Protocol: as §1, §2

S. epidermidis GC 4935 = details: Staphylococcus epidermidis, GC4935, S. epidermidis GC 4935
E. faecalis GC 2265 = details: Enterococcus faecalis, GC2265, E. faecalis GC 2265
E. faecalis GC 2267 = details: Enterococcus faecalis, GC2267, E. faecalis GC 2267
E. faecium GC 2243 = details: Enterococcus faecium, GC2243, E. faecium GC 2243
Protocol: as §1, §2

c. albicans GC 3066 = tested on: c. albicans GC 3066

Measured: MIC

CCCN(CC(=O)Nc1cc(N(C)C)c2c(c1O)C(=O)C1=C(O)[C@]3(O)C(=O)C(C(N)=O)=C(O)[C@@H](N(C)C)[C@@H]3C[C@@H]1C2)C(=O)OCOC(=O)C(C)(C)C [Example 9, ({[(2-{[(5aR,6aS,7S,10aS)-9-(aminocarbonyl)-4,7-bis(dimethylamino)-1,8,10a,11-tetrahydroxy-10,12-dioxo-5,5a,6,6a,7,10,10a,12-octahydrotetracen-2-yl]amino}-2-oxoethyl)(propyl)amino]carbonyl}oxy)methyl pivalate]
< 0.06 µg/mL: S. aureus GC 1131; Mouse Serum pre-incubation
> 64 µg/mL: E. coli GC 6465; Water pre-incubation | P. aeruginosa GC 2214; Water pre-incubation | c. albicans GC 3066; Candida albicans, GC3066
2 µg/mL: E. coli GC 3226; Mouse Serum pre-incubation | S. aureus GC 6467; Water pre-incubation | S. aureus GC 1079; Mouse Serum pre-incubation | S. aureus GC 6469; Water pre-incubation | E. faecalis GC 2265; Water pre-incubation | E. faecalis GC 2267; Water pre-incubation
0.25 µg/mL: E. coli GC 4560; Mouse Serum pre-incubation | S. aureus GC 1131; Water pre-incubation | S. aureus GC 6335; Mouse Serum pre-incubation | S. epidermidis GC 4935; Mouse Serum pre-incubation | E. faecium GC 2243; Mouse Serum pre-incubation
4 µg/mL: E. coli GC 2233; Water pre-incubation | E. coli GC 2270; Water pre-incubation | E. coli GC 6465; Mouse Serum pre-incubation | E. coli GC 2203; Water pre-incubation
>64 UG/ML: c. albicans GC 3066; c. albicans GC 3066, Water pre-incubation
8 µg/mL: E. coli GC 2271; Water pre-incubation | E. coli GC 2272; Water pre-incubation | E. coli GC 1073; Water pre-incubation
1 µg/mL: E. coli GC 4560; Water pre-incubation | E. coli GC 1073; Mouse Serum pre-incubation | S. aureus GC 6467; Mouse Serum pre-incubation | S. aureus GC 1079; Water pre-incubation | S. aureus GC 6469; Mouse Serum pre-incubation | S. epidermidis GC 4935; Water pre-incubation | E. faecalis GC 2265; Mouse Serum pre-incubation | E. faecalis GC 2267; Mouse Serum pre-incubation
0.5 µg/mL: E. coli GC 2233; Mouse Serum pre-incubation | E. coli GC 2270; Mouse Serum pre-incubation | E. coli GC 2271; Mouse Serum pre-incubation | E. coli GC 2272; Mouse Serum pre-incubation | E. coli GC 2203; Mouse Serum pre-incubation | S. aureus GC 6335; Water pre-incubation | E. faecium GC 2243; Water pre-incubation
16 µg/mL: E. coli GC 3226; Water pre-incubation | P. aeruginosa GC 2214; Mouse Serum pre-incubation
